Results from PMC6249113 (ACS chemical neuroscience, 2018).

What was measured:
GluN1/2A NMDARs = GluN1/2A NMDARs (Rattus norvegicus, UniProt P35439+Q00959); format: cell-based; conditions: 10 μM compound; 100 μM NMDA plus 10 μM glycine; voltage pulse to +60 mV
GluN1/2A receptors = GluN1/2A receptors (Rattus norvegicus, UniProt P35439+Q00959); format: cell-based; conditions: for δ, fraction of the total transmembrane voltage field felt by the blocker at its binding site: calculated from V0 by Equation 4; for Hill coefficient (nH): tsA201 cells, GluN1/2A, 1 mM glutamate, −65 mV, fit of Equation 2; for V0, change in voltage that results in an e-fold change in the IC50: roughly twice the IC50 of each drug (3 μM 5, 5 μM 7, 2 μM 8, 1 μM 11), 9 voltages −105 to +55 mV, fit of Equation 3
Chain of GluN1/2A receptors (Q00959 23-1464, other chains not shown): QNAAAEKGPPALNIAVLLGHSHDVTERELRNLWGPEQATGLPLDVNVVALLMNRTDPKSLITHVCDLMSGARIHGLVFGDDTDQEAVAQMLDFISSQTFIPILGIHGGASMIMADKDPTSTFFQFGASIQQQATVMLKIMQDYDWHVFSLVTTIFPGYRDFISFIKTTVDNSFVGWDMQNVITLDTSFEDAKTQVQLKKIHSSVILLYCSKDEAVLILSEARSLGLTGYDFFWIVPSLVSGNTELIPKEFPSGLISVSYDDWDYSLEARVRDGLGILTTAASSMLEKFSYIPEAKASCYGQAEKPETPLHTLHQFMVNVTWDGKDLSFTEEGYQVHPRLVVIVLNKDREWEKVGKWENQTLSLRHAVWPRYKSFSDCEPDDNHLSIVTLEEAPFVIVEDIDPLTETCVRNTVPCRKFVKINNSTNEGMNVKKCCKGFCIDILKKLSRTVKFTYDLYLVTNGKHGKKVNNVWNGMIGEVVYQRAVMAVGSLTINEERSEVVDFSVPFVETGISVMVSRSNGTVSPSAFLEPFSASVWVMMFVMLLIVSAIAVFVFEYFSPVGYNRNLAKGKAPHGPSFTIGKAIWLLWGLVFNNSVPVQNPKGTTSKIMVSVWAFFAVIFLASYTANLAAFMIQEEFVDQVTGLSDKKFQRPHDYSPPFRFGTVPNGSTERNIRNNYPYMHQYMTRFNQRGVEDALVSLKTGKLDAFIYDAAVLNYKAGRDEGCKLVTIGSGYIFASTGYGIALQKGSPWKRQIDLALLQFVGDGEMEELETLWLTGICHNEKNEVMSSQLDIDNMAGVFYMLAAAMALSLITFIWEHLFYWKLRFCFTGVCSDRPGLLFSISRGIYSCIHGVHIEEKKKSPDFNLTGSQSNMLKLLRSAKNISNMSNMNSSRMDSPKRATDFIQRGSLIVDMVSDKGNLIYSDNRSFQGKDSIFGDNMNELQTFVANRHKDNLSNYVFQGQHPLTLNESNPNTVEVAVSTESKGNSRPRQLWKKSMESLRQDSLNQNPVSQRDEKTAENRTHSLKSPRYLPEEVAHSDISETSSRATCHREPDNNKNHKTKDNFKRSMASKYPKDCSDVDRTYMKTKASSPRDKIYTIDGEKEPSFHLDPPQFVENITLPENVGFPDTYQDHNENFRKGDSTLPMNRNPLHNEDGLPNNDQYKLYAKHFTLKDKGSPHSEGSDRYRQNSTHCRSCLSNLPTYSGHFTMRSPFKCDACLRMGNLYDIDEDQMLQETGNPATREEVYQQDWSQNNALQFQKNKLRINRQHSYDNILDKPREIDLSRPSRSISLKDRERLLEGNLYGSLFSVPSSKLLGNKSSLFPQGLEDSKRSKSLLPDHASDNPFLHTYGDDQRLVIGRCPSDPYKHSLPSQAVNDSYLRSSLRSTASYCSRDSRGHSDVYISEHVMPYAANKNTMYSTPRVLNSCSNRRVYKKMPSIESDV

Chain of GluN1/2A NMDARs (Q00959 23-1464, other chains not shown): as above

CC12CC3CC(C)(C1)CC(N)(C3)C2 [Compound 5, memantine, reference compound]
percentage block at +60 mV (GluN1/2A NMDARs): 8.1 ± 4.0%
IC50 (GluN1/2A receptors): 1840 ± 390 nM
δ, fraction of the total transmembrane voltage field felt by the blocker at its binding site (GluN1/2A receptors): 0.91 ± 0.08
Hill coefficient (nH) (GluN1/2A receptors): 1.07 ± 0.27

CC12CC3CC1(C)C1(C)CC3(CN)CC21C.Cl [Compound 8, (3,4,8,9-Tetramethyltetracydo[4.4.0.0^3,9.0^4,8]dec-1-yl)methylamine hydrochloride]
percentage block at +60 mV (GluN1/2A NMDARs): 14.7 ± 4.5%
δ, fraction of the total transmembrane voltage field felt by the blocker at its binding site (GluN1/2A receptors): 0.87 ± 0.05
V0, change in voltage that results in an e-fold change in the IC50 (GluN1/2A receptors): 29.9 ± 1.9 mV
Hill coefficient (nH) (GluN1/2A receptors): 1.01 ± 0.11

CC12CC3CC1(C)C1(C)CC3(N)CC21C.Cl [Compound 7, (3,4,8,9-Tetramethyltetracydo[4.4.0.0^3,9.0^4,8]dec-1-yl)amme hydrochloride]
percentage block at +60 mV (GluN1/2A NMDARs): 2.4 ± 5.1%
δ, fraction of the total transmembrane voltage field felt by the blocker at its binding site (GluN1/2A receptors): 0.99 ± 0.05
V0, change in voltage that results in an e-fold change in the IC50 (GluN1/2A receptors): 26.5 ± 1.8 mV
Hill coefficient (nH) (GluN1/2A receptors): 0.98 ± 0.08
